{"source": "paper PMC9005681", "about": "“Use of AD Informer Set compounds to explore validity of novel targets in Alzheimer's disease pathology” (Alzheimer's & Dementia : Translational Research & Clinical …, 2022)", "assay_in_all_cases": "PDSP GPCR panel primary binding assays at 10 μM", "key": {"[1]": {"target": "T1, cloned human or rodent CNS receptors, channels, and transporters (PDSP panel) (Homo sapiens, UniProt P08908)", "T1 construct": "expressed in transfected cells", "T1 sequence (P08908 1-422)": "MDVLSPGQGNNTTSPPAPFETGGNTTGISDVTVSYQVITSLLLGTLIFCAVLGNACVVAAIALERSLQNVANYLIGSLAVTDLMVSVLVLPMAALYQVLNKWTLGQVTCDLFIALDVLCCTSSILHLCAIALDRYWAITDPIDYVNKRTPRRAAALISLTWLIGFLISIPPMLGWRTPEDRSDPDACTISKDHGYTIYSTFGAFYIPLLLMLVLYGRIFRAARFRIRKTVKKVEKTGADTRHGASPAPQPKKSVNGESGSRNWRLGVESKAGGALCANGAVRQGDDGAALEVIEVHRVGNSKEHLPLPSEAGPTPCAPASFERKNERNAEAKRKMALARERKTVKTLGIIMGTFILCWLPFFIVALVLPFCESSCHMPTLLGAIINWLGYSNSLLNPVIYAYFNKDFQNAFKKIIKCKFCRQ", "details": "Receptor 5-HT1A, primary assay, 10 μM", "experimental": "(§1) GPCR panel: Screening against the receptors within the PDSP panel offers an assessment of off-target pharmacological activity at cloned human or rodent CNS receptors, channels, and transporters that could confound CNS-related phenotypes. A total of 46–47 primary binding assays were run in quadruplicate on these compounds at 10 μM, with follow-up secondary binding assays in 11-point dose-response in triplicate for select compounds versus select receptors. Secondary binding assays were executed for all receptors where test compound displaced an average of >50% of radio-labeled standard ligand. As an exception, no secondary assays were carried out for H3, PBR, or GABAA. […]"}, "[2]": {"target": "T2, cloned human or rodent CNS receptors, channels, and transporters (PDSP panel) (Homo sapiens, UniProt P18089)", "T2 construct": "expressed in transfected cells", "T2 sequence (P18089 1-450)": "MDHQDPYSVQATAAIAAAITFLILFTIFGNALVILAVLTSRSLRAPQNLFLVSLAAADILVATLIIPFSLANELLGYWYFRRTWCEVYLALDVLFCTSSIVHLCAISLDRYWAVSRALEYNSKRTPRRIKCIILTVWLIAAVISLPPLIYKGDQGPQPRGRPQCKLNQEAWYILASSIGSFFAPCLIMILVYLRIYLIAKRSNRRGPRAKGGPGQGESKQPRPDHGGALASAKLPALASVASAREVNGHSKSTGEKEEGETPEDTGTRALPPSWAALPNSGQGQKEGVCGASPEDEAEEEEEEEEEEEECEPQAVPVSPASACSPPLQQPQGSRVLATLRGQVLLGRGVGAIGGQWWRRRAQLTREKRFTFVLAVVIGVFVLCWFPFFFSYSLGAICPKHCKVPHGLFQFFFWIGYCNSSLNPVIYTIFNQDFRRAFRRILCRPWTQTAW", "details": "Receptor Alpha2B, primary assay, 10 μM", "experimental": "as §1"}, "[3]": {"target": "T3, cloned human or rodent CNS receptors, channels, and transporters (PDSP panel) (Homo sapiens, UniProt P20309)", "T3 construct": "expressed in transfected cells", "T3 sequence (P20309 whole entry)": "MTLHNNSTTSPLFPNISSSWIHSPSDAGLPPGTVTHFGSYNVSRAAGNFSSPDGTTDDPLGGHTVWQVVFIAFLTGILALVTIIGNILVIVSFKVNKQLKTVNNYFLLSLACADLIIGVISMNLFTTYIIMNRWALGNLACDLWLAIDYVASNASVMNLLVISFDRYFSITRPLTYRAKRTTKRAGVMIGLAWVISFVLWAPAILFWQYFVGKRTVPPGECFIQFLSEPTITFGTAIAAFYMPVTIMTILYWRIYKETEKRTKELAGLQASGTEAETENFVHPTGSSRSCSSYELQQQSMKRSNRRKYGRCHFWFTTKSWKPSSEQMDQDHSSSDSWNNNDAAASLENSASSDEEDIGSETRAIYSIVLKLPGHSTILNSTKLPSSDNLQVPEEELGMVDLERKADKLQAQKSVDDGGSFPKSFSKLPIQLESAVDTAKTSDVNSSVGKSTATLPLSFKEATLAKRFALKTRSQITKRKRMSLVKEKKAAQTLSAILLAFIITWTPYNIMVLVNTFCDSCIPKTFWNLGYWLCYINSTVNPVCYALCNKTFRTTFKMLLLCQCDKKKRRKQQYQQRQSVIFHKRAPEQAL", "details": "Receptor M3, primary assay, 10 μM", "experimental": "as §1"}, "[4]": {"target": "T4, cloned human or rodent CNS receptors, channels, and transporters (PDSP panel) (Homo sapiens, UniProt P21918)", "T4 construct": "expressed in transfected cells", "T4 sequence (P21918 whole entry)": "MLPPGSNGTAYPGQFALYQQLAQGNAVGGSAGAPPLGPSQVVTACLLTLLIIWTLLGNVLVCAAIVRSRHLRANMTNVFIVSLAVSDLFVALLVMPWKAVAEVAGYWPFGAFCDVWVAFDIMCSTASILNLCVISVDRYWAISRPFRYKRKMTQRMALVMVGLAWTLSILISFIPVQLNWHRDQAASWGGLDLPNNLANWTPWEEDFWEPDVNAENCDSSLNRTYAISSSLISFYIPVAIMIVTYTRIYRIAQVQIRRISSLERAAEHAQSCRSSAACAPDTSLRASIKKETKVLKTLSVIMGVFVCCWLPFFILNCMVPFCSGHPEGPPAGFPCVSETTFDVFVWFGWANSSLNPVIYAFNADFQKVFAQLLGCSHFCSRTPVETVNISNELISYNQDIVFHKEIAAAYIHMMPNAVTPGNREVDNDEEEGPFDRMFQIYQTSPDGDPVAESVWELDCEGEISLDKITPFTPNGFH", "details": "Receptor D5, primary assay, 10 μM", "experimental": "as §1"}, "[5]": {"target": "T5, cloned human or rodent CNS receptors, channels, and transporters (PDSP panel) (Homo sapiens, UniProt P25100)", "T5 construct": "expressed in transfected cells", "T5 sequence (P25100 1-572)": "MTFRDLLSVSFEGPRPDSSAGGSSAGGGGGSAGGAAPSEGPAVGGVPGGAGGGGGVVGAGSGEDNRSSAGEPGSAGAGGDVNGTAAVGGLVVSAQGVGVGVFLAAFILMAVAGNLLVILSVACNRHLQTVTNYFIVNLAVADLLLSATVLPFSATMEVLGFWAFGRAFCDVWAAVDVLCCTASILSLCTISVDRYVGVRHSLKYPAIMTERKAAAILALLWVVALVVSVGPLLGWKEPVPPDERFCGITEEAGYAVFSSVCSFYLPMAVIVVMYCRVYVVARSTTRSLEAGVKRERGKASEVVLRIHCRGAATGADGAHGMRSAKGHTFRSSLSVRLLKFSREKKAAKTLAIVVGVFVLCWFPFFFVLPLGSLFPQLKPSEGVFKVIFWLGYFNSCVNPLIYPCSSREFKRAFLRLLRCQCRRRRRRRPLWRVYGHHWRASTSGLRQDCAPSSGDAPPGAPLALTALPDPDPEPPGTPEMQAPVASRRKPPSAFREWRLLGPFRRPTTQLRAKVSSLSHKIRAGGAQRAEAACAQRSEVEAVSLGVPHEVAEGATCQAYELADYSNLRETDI", "details": "Receptor Alpha1D, primary assay, 10 μM", "experimental": "as §1"}, "[6]": {"target": "T6, cloned human or rodent CNS receptors, channels, and transporters (PDSP panel) (Homo sapiens, UniProt P28566)", "T6 construct": "expressed in transfected cells", "T6 sequence (P28566 whole entry)": "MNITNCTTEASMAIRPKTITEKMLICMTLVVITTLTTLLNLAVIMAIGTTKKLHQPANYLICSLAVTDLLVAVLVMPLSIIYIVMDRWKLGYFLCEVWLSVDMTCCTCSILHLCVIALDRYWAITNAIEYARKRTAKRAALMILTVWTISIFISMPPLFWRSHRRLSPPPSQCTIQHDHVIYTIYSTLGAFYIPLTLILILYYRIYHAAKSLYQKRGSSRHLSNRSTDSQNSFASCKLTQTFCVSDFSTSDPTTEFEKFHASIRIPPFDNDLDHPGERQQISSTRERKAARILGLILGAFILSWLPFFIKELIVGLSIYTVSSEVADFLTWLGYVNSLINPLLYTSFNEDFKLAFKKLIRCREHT", "details": "Receptor 5-HT1E, primary assay, 10 μM", "experimental": "as §1"}, "[7]": {"target": "T7, cloned human or rodent CNS receptors, channels, and transporters (PDSP panel) (Homo sapiens, UniProt P31645)", "T7 construct": "expressed in transfected cells", "T7 sequence (P31645 whole entry)": "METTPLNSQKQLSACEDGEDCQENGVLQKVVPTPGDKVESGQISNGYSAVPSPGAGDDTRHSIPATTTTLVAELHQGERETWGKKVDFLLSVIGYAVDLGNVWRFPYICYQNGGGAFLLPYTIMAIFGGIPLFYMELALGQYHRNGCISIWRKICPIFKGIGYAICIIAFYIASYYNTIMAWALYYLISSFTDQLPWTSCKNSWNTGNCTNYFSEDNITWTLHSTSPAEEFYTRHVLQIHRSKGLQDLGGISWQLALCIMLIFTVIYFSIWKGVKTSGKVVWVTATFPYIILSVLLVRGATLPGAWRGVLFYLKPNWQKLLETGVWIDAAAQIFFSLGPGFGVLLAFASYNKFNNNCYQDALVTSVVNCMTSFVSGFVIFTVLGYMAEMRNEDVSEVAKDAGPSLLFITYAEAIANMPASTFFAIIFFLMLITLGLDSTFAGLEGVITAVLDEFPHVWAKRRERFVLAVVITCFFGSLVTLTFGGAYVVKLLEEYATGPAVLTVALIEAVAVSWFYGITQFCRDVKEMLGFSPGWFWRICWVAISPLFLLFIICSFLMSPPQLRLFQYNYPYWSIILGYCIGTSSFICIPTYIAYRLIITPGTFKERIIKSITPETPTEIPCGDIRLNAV", "details": "Receptor SERT, primary assay, 10 μM", "experimental": "as §1"}, "[8]": {"target": "T8, cloned human or rodent CNS receptors, channels, and transporters (PDSP panel) (Homo sapiens, UniProt P35372)", "T8 construct": "expressed in transfected cells", "T8 sequence (P35372 whole entry)": "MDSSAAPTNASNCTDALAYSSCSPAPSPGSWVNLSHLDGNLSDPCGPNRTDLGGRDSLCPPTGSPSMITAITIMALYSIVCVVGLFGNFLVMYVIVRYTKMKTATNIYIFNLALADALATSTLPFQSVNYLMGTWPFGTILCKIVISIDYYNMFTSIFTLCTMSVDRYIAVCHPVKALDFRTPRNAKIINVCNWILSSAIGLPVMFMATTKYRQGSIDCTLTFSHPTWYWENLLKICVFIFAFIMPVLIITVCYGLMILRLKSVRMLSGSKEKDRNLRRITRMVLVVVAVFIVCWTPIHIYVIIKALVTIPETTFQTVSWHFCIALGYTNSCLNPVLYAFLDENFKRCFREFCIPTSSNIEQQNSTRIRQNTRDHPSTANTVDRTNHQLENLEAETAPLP", "details": "Receptor MOR, primary assay, 10 μM", "experimental": "as §1"}, "[9]": {"target": "T9, cloned human or rodent CNS receptors, channels, and transporters (PDSP panel) (Homo sapiens, UniProt P35462)", "T9 construct": "expressed in transfected cells", "T9 sequence (P35462 whole entry)": "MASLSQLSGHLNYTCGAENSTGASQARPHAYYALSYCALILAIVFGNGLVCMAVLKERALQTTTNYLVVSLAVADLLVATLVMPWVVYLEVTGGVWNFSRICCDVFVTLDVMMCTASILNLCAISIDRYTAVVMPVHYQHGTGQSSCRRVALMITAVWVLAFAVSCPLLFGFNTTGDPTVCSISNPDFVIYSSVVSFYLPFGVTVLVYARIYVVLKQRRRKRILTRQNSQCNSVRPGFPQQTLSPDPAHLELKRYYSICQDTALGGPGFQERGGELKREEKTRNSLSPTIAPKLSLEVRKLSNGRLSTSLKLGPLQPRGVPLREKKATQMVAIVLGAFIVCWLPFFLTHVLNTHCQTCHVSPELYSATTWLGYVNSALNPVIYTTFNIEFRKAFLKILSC", "details": "Receptor D3, primary assay, 10 μM", "experimental": "as §1"}}, "note": "Several values for one entry are separate records, joined by “and”; a condition that tells them apart may be missing. Identical values can stand only once.", "data": [{"smiles": "CCCCNc1ncc2c(-c3ccc(CN4CCN(C)CC4)cc3)cn([C@H]3CC[C@H](O)CC3)c2n1", "note": "[UNC2025C, UNC2025]", "values": [{"measurement": "Inhibition 1", "setting": "[1]", "result": 9.39, "unit": "%"}, {"measurement": "Inhibition 2", "setting": "[1]", "result": -18.53, "unit": "%"}, {"measurement": "Inhibition 3", "setting": "[1]", "result": 19.05, "unit": "%"}, {"measurement": "Inhibition 4", "setting": "[1]", "result": 31.46, "unit": "%"}, {"measurement": "Mean %", "setting": "[1]; mean of Inhibition 1-4", "result": 10.34, "unit": "%"}, {"measurement": "Inhibition 1", "setting": "[2]", "result": 27.09, "unit": "%"}, {"measurement": "Inhibition 2", "setting": "[2]", "result": 28.85, "unit": "%"}, {"measurement": "Inhibition 3", "setting": "[2]", "result": -0.55, "unit": "%"}, {"measurement": "Inhibition 4", "setting": "[2]", "result": 53.34, "unit": "%"}, {"measurement": "Mean %", "setting": "[2]; mean of Inhibition 1-4", "result": 27.18, "unit": "%"}, {"measurement": "Inhibition 1", "setting": "[3]", "result": -7.29, "unit": "%"}, {"measurement": "Inhibition 2", "setting": "[3]", "result": -5.9, "unit": "%"}, {"measurement": "Inhibition 3", "setting": "[3]", "result": -6.87, "unit": "%"}, {"measurement": "Inhibition 4", "setting": "[3]", "result": 2.81, "unit": "%"}, {"measurement": "Mean %", "setting": "[3]; mean of Inhibition 1-4", "result": -4.31, "unit": "%"}, {"measurement": "Inhibition 1", "setting": "[4]", "result": 6.22, "unit": "%"}, {"measurement": "Inhibition 2", "setting": "[4]", "result": 2.13, "unit": "%"}, {"measurement": "Inhibition 3", "setting": "[4]", "result": 5.78, "unit": "%"}, {"measurement": "Inhibition 4", "setting": "[4]", "result": 14.39, "unit": "%"}, {"measurement": "Mean %", "setting": "[4]; mean of Inhibition 1-4", "result": 7.13, "unit": "%"}, {"measurement": "Inhibition 1", "setting": "[5]", "result": 50.98, "unit": "%"}, {"measurement": "Inhibition 2", "setting": "[5]", "result": 57.37, "unit": "%"}, {"measurement": "Inhibition 3", "setting": "[5]", "result": 48.7, "unit": "%"}, {"measurement": "Inhibition 4", "setting": "[5]", "result": 44.3, "unit": "%"}, {"measurement": "Mean %", "setting": "[5]; mean of Inhibition 1-4", "result": 50.34, "unit": "%"}, {"measurement": "Inhibition 1", "setting": "[6]", "result": 4.71, "unit": "%"}, {"measurement": "Inhibition 2", "setting": "[6]", "result": -8.74, "unit": "%"}, {"measurement": "Inhibition 3", "setting": "[6]", "result": 0.13, "unit": "%"}, {"measurement": "Inhibition 4", "setting": "[6]", "result": -9.18, "unit": "%"}, {"measurement": "Mean %", "setting": "[6]; mean of Inhibition 1-4", "result": -3.27, "unit": "%"}, {"measurement": "Inhibition 1", "setting": "[7]", "result": "82.19% and 71%"}, {"measurement": "Inhibition 2", "setting": "[7]", "result": "70.62% and 68.78%"}, {"measurement": "Inhibition 3", "setting": "[7]", "result": "68.77% and 67.79%"}, {"measurement": "Inhibition 4", "setting": "[7]", "result": "72.64% and 73.98%"}, {"measurement": "Mean %", "setting": "[7]; mean of Inhibition 1-4", "result": "73.56% and 70.39%"}, {"measurement": "Inhibition 1", "setting": "[8]", "result": 9.74, "unit": "%"}, {"measurement": "Inhibition 2", "setting": "[8]", "result": 12.91, "unit": "%"}, {"measurement": "Inhibition 3", "setting": "[8]", "result": 2.36, "unit": "%"}, {"measurement": "Inhibition 4", "setting": "[8]", "result": 6.67, "unit": "%"}, {"measurement": "Mean %", "setting": "[8]; mean of Inhibition 1-4", "result": 7.92, "unit": "%"}, {"measurement": "Inhibition 1", "setting": "[9]", "result": 18.68, "unit": "%"}, {"measurement": "Inhibition 2", "setting": "[9]", "result": 25.04, "unit": "%"}, {"measurement": "Inhibition 3", "setting": "[9]", "result": 10.39, "unit": "%"}, {"measurement": "Inhibition 4", "setting": "[9]", "result": 7.11, "unit": "%"}, {"measurement": "Mean %", "setting": "[9]; mean of Inhibition 1-4", "result": 15.31, "unit": "%"}]}]}
